In ChEMBL document CHEMBL1201862, “PubChem BioAssay data set” (2004):
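Each compound was tested at five concentrations against cells in 96-well plates for 48 hours. Here, GI50 denotes the concentration required for 50% inhibition of growth.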 Calls of active or inactive are those of the source. Cut-off read from the data, not from the text of the source: active = GI50 up to about 1.1 µM and inactive = higher.

Key:
Test in all cases: NCI tumour cell line growth inhibition, 48 h
[1] = test system: M14
[2] = test system: HOP-62
[3] = test system: SW-620
[4] = test system: RXF 393
[5] = test system: HT-29
[6] = test system: OVCAR-8
[7] = test system: SK-OV-3
[8] = test system: 786-0
[9] = test system: HOP-92
[10] = test system: NCI-H460
[11] = test system: LOX IMVI
[12] = test system: DU-145
[13] = test system: SK-MEL-5
[14] = test system: OVCAR-5
[15] = test system: ACHN
[16] = test system: SK-MEL-28
[17] = test system: TK-10
[18] = test system: CCRF-CEM
[19] = test system: RPMI-8226

Row | Compound | GI50 [1] | GI50 [2] | GI50 [3] | GI50 [4] | GI50 [5] | GI50 [6] | GI50 [7] | GI50 [8] | GI50 [9] | GI50 [10] | GI50 [11] | GI50 [12] | GI50 [13] | GI50 [14] | GI50 [15] | GI50 [16] | GI50 [17] | GI50 [18] | GI50 [19]
1 | CC(C)=CC(O)C/C(C)=C/CC/C(C)=C/CCC1(C)C(CCCO)/C(=C(/C)C=O)CCC1(C)O (stereo unspecified) | 26.1 µM (inactive) | 25.9 µM (inactive) | 40.6 µM (inactive) | 25.7 µM (inactive) | 26.1 µM (inactive) | 47 µM (inactive) | 47.8 µM (inactive) | 35.7 µM (inactive) | 22.8 µM (inactive) | 25.6 µM (inactive) | 32.5 µM (inactive) | 57 µM (inactive) | 43.9 µM (inactive) | > 100 µM (inactive) | 20.6 µM (inactive) | 29.6 µM (inactive) | 30.3 µM (inactive) | 30.5 µM (inactive) | 21.3 µM (inactive)
2 | CN(CCCNC(=O)c1cc(-c2ccccc2)nc2ccccc12)CCCNC(=O)c1cc(-c2ccccc2)nc2ccccc12 | 1.71 µM (inactive) | 1.82 µM (inactive) | 1.85 µM (inactive) | 4.62 µM (inactive) | 2 µM (inactive) | 2.32 µM (inactive) | 13 µM (inactive) | 1.7 µM (inactive) | 2.64 µM (inactive) | 1.78 µM (inactive) | 1.85 µM (inactive) | 3.58 µM (inactive) | 1.66 µM (inactive) | 2.28 µM (inactive) | 2.81 µM (inactive) | 1.83 µM (inactive) | 4.45 µM (inactive) | 3.73 µM (inactive) | 2.8 µM (inactive)
3 | CC[C@@]1(O)C(=O)OCc2c1cc1n(c2=O)Cc2c-1nc1ccccc1c2/C=N/NC(=O)c1ccc(N)cc1 | 0.0585 µM (active) | 0.0333 µM (active) | 0.0796 µM (active) | < 0.0322 µM (active) | 4.68 µM (inactive) | 0.0944 µM (active) | 0.158 µM (active) | 0.0422 µM (active) | 0.0447 µM (active) | 0.0796 µM (active) | 0.0273 µM (active) | 0.0383 µM (active) | 0.136 µM (active) | 5.22 µM (inactive) | 0.0244 µM (active) | 0.263 µM (active) | 15.6 µM (inactive) | < 0.01 µM (active) | 1.52 µM (inactive)
4 | O=C(OCc1ccccc1)N(CCCCN(CCCNCc1ccccc1)C(=O)OCc1ccccc1)CCCNCc1ccccc1 | 0.252 µM (active) | 1.6 µM (inactive) | 0.221 µM (active) | 1.63 µM (inactive) | 0.24 µM (active) | 1.54 µM (inactive) | 14.5 µM (inactive) | 0.289 µM (active) | 0.12 µM (active) | 0.188 µM (active) | 0.22 µM (active) | 1.27 µM (inactive) | 0.697 µM (active) | 1.63 µM (inactive) | 1.51 µM (inactive) | 1.62 µM (inactive) | 1.58 µM (inactive) | 0.242 µM (active) | 0.24 µM (active)
5 | CC1(C(=O)O)C[C@](C)(C(=O)OCc2ccccc2)C[C@](C)(C(=O)OCc2ccccc2)C1 (stereo partly specified) | 45.6 µM (inactive) | 30.5 µM (inactive) | 47 µM (inactive) | 21.6 µM (inactive) | 31.8 µM (inactive) | 34.5 µM (inactive) | 32.6 µM (inactive) | 32 µM (inactive) | 19.6 µM (inactive) | 23.9 µM (inactive) | 30.8 µM (inactive) | 29.8 µM (inactive) | 32.7 µM (inactive) | 34.3 µM (inactive) | 22.9 µM (inactive) | 50.2 µM (inactive) | 43.3 µM (inactive) | 34.3 µM (inactive) | 26.2 µM (inactive)
6 | COc1cc(/C=C2\N=C(c3ccccc3)N(c3nc4c(OC)ccc(OC)c4s3)C2=O)cc(OC)c1OC | > 100 µM (inactive) | > 100 µM (inactive) | 49.7 µM (inactive) | 85.1 µM (inactive) | > 100 µM (inactive) | 86.1 µM (inactive) | > 100 µM (inactive) | 55 µM (inactive) | > 100 µM (inactive) | > 100 µM (inactive) | 51.8 µM (inactive) | > 100 µM (inactive) | 34.8 µM (inactive) | > 100 µM (inactive) | > 100 µM (inactive) | > 100 µM (inactive) | > 100 µM (inactive) | 31.2 µM (inactive) | 43 µM (inactive)
7 | Cc1nc2ccccc2c(=O)n1NC(=O)c1ccc(N)cc1 | > 100 µM (inactive) | > 100 µM (inactive) | > 100 µM (inactive) | > 100 µM (inactive) | > 100 µM (inactive) | > 100 µM (inactive) | > 100 µM (inactive) | > 100 µM (inactive) | > 100 µM (inactive) | > 100 µM (inactive) | > 100 µM (inactive) | > 100 µM (inactive) | 17.8 µM (inactive) | > 100 µM (inactive) | > 100 µM (inactive) | > 100 µM (inactive) | > 100 µM (inactive) | > 100 µM (inactive) | > 100 µM (inactive)
8 | Cn1c(-c2c(C3=CC(=O)N(c4ccccc4)C3=O)c3ccccc3n2C)cc2ccccc21 | > 100 µM (inactive) | > 100 µM (inactive) | > 100 µM (inactive) | 4.4 µM (inactive) | > 100 µM (inactive) | > 100 µM (inactive) | 4.38 µM (inactive) | > 100 µM (inactive) | > 100 µM (inactive) | > 100 µM (inactive) | > 100 µM (inactive) | > 100 µM (inactive) | > 100 µM (inactive) | > 100 µM (inactive) | > 100 µM (inactive) | > 100 µM (inactive) | > 100 µM (inactive) | 18.9 µM (inactive) | 92.7 µM (inactive)
9 | C/C(=N\NC(=S)NCCCNC(=S)N/N=C(\C)c1ccccn1)c1ccccn1 | 0.733 µM (active) | 1.94 µM (inactive) | 22.5 µM (inactive) | 3.03 µM (inactive) | 2 µM (inactive) | 1.71 µM (inactive) | 2.01 µM (inactive) | 0.617 µM (active) | 6.73 µM (inactive) | 1.29 µM (inactive) | 2.81 µM (inactive) | 2.26 µM (inactive) | 2.02 µM (inactive) | 7.94 µM (inactive) | 1.4 µM (inactive) | 4.99 µM (inactive) | 0.619 µM (active) | 1.16 µM (inactive) | 4.2 µM (inactive)
10 | CN(C)c1n/c(=N/Cc2ccncc2)ss1 | 16.8 µM (inactive) | > 10 µM (inactive) | 23.9 µM (inactive) | 31.8 µM (inactive) | 19.3 µM (inactive) | 17.6 µM (inactive) | > 40 µM (inactive) | 17.4 µM (inactive) | > 63.1 µM (inactive) | > 100 µM (inactive) | 16.4 µM (inactive) | > 10 µM (inactive) | > 10 µM (inactive) | 22.6 µM (inactive) | 13.5 µM (inactive) | 36.8 µM (inactive) | > 66.2 µM (inactive) | 13.6 µM (inactive) | 21 µM (inactive)
11 | Cc1c(C(=O)O)n2c(S)nnc2c2ccccc12 | > 100 µM (inactive) | > 100 µM (inactive) | > 100 µM (inactive) | > 100 µM (inactive) | > 100 µM (inactive) | > 100 µM (inactive) | > 100 µM (inactive) | > 100 µM (inactive) | > 100 µM (inactive) | > 100 µM (inactive) | > 100 µM (inactive) | > 100 µM (inactive) | > 100 µM (inactive) | > 100 µM (inactive) | > 100 µM (inactive) | > 100 µM (inactive) | > 100 µM (inactive) | > 100 µM (inactive) | > 100 µM (inactive)
12 | c1ccc(CN2CCC(CNc3ncnc4ccccc34)C2)cc1 (stereo unspecified) | 17.3 µM (inactive) | > 100 µM (inactive) | > 100 µM (inactive) | > 100 µM (inactive) | 33.1 µM (inactive) | 83 µM (inactive) | > 100 µM (inactive) | > 100 µM (inactive) | 34.8 µM (inactive) | 44.3 µM (inactive) | 45.3 µM (inactive) | > 100 µM (inactive) | 21.2 µM (inactive) | > 100 µM (inactive) | > 100 µM (inactive) | 25.9 µM (inactive) | 44.5 µM (inactive) | 41 µM (inactive) | 9.02 µM (inactive)
13 | c1ccc(C[N+]23CN4CN(CN(C4)C2)C3)cc1 | 19.7 µM (inactive) | 69.2 µM (inactive) | 24.1 µM (inactive) | 18 µM (inactive) | 33.2 µM (inactive) | 30.1 µM (inactive) | > 100 µM (inactive) | 21.1 µM (inactive) | 36.1 µM (inactive) | 38.2 µM (inactive) | 22 µM (inactive) | 27.5 µM (inactive) | 23.9 µM (inactive) | > 100 µM (inactive) | 29.3 µM (inactive) | 26.7 µM (inactive) | 84.5 µM (inactive) | 11.7 µM (inactive) | 22.5 µM (inactive)
14 | O=S1(=O)c2ccccc2-c2nccc3ccnc1c23 | 19.1 µM (inactive) | 40.7 µM (inactive) | 7.23 µM (inactive) | 34 µM (inactive) | 5.58 µM (inactive) | 15 µM (inactive) | 56.9 µM (inactive) | 25.5 µM (inactive) | 24.3 µM (inactive) | 13.1 µM (inactive) | 12.6 µM (inactive) | 11.3 µM (inactive) | 4.82 µM (inactive) | 41.2 µM (inactive) | 8.57 µM (inactive) | 55.6 µM (inactive) | 20.8 µM (inactive) | 4.02 µM (inactive) | 16.2 µM (inactive)
